Assay results: US20090149533A1 (TransForm Pharmaceuticals, Inc., priority 2004, published 2009)
Values after ≈ are worked out from the molar mass of the structure shown.

Key:
[1] = Solubility of fenofibrate in E463808-additive mixtures; assay type: physicochemical; conditions: about 10% v/v additive; 25° C.
Experimental: Equilibrated samples were filtered using 0.2 micrometer PVDF syringe filters and diluted for assay. […] (Tween 85 is also known as polyoxyethylenesorbitan trioleate, Tween 80 is also known as polyoxyethylenesorbitan monooleate, Span 80 is also known as sorbitan monooleate, Span 85 is also known as sorbitan trioleate, and Cremophor EL is also known as polyoxyl castor oil.) Span 80, Span 85, and Tween 85 samples were analyzed using normal-phase HPLC. Cremophor EL, Tween 80, and replicates of Tween 85 samples were analyzed using UV measurements at 285 nm.

[2] = Equilibrium fenofibrate solubility in ethyl esters versus triglycerides; assay type: physicochemical; conditions: fenofibrate solubility at 25 degrees C. in the vehicle given as label
[3] = in vivo; cited from earlier work
[4] = Stability and compatibility of fenofibrate and E463808 (gradient HPLC); assay type: physicochemical; conditions: 80 or 200 mg/mL in E463808, sealed vial or gelcap, 4 deg C. to 60 deg C., up to 8 weeks

| Molecule | effect of additive on fenofibrate solubility in E463808 [1] | further results |
| --- | --- | --- |
| polyoxyethylenesorbitan monooleate [Tween 80®] | Slight enhancement in fenofibrate solubility | – |
| polyoxyl castor oil [Cremophor® EL] | Slight enhancement in fenofibrate solubility | – |
| polyoxyethylenesorbitan trioleate [Tween 85®] | Slight enhancement in fenofibrate solubility | – |
| CCCCC/C=C\C/C=C\CCCCCCCC(=O)OCC(COC(=O)CCCCCCC/C=C\C/C=C\CCCCC)OC(=O)CCCCCCC/C=C\C/C=C\CCCCC [Trilinolein] | – | Solubility [2]: 61.2 mg/mL (≈ 69.6 mM) |
| CC(C)(Oc1ccc(C(=O)c2ccc(Cl)cc2)cc1)C(=O)O [fenofibric acid] | – | elimination half-life [3]: approximately twenty |
| CC(C)OC(=O)C(C)(C)Oc1ccc(C(=O)c2ccc(Cl)cc2)cc1 [Fenofibrate, 2-[4-(4-chlorobenzoyl)phenoxy]-2-methyl-propanoic acid 1-methylethyl ester] | – | degradation of fenofibrate [4]: no degradation was observed |
